# Assay results: patent US20250263415A1, “TERTIARY AMIDE DERIVATIVES SUBSTITUTED WITH 4-MEMBERED RING STRUCTURE” (Sumitomo Pharma Co., Ltd., priority 2024, published 2025)
# Tests used:
# G-401 xenograft [1] = assay: Drug efficacy evaluation by oral administration using G-401 xenograft model mice; assay type: in vivo
# Protocol: (§1) G-401 cells (ATCC) were intradermally transplanted into 4-7-week-old BALB/cAnNCrj-nu/nu mice (CAnN.Cg-Foxnl/CrlCrlj, Jackson Laboratory Japan) at 5×10^5 cells/mouse. After confirming the engraftment of G-401 cells 10-40 days after transplantation, the test compound suspended in a solvent such as 0.5% methylcellulose solution was orally administered twice a day at a dose of 1-100 mg/kg. The tumor volume was measured over time from the start of administration, and the effect of tumor volume reduction by administration of the test compound was evaluated. The tumor volume can be calculated from the following equation using the minor axis and major axis of the tumor measured with an electronic caliper (Mitutoyo).
# A control administration group administered with only a solvent such as 0.5% methylcellulose solution and a test compound administration group were compared, and the antitumor effect was evaluated by calculating T/C from the following equation.
# hSERT = hSERT (Homo sapiens (Human), UniProt P31645); assay: Serotonin receptor inhibitory activity evaluation (binding assay, HEK293/hSERT membranes); conditions: off-target
# Protocol: The binding evaluation assay was outsourced to Eurofins. Specifically, HEK293/hSERT cells were homogenized in a buffer consisting of 100 mmol/L NaCl, 1 μmol/L Leupeptin, 10 μmol/L PMSF, and 50 mmol/L Tris-HCl (pH7.4). The membrane pellet obtained by centrifugation was resuspended in an incubation buffer consisting of 50 mmol/L Tris-HCl (pH 7.4), 120 mmol/L NaCl, and 5 mmol/L KCl to prepare a membrane preparation. The test compound (1-10 μmol/L DMSO solution), the membrane preparation, and 0.4 nmol/L [^3H]Paroxetin were mixed and incubated at 25° C. for 60 minutes. The cell membrane-[^3H]Paroxetin complex was bound to a GF/B filter mat by vacuum filtration and washed with 50 mmol/L Tris-HCl (pH 7.4). The effect on the receptor was assessed by measuring radioactivity using a scintillation counter.
# G-401 xenograft [2] = assay: Drug efficacy evaluation by intravenous administration using G-401 xenograft mice model; assay type: in vivo; conditions: G-401 xenograft model
# Protocol: as §1, with “as 10 mmol/L glycine buffer” for “as 0.5% methylcellulose”, “solution (pH 2.0)” for “solution”, “was” for “was orally”, “administered via the tail vein at least once” for “administered twice”, “a week” for “a day”, “of 0.015-20” for “of 1-100”
# A control administration group administered with only a solvent such as 10 mmol/L glycine buffer solution (pH 2.0) and a test compound administration group were compared, and the antitumor effect was evaluated by calculating T/C from the following equation.
# [3] = Pharmacokinetic study in mice; assay type: in vivo
# Protocol: The test compound was administered to 7-week-old female BALE/c (BALB/cAnN CrlCrlj) mice intravenously (dosage: 1 mg/kg) in a 50% PEG solution (0.01 mol/L HCl) or orally (dosage: 10 mg/kg) in a 0.5% methylcellulose aqueous solution, and blood was collected at the following times: • Intravenous administration: 5 min, 15 min, 30 min, 1 hr, 2 hr, 4 hr, 6 hr, and 24 hr after administration • Oral administration: 15 min, 30 min, 1 hr, 2 hr, 4 hr, 6 hr, and 24 hr after administration
# The collected blood was centrifuged at 3000 rpm×10 min using a refrigerated centrifuge set at 4° C., and the obtained plasma was measured by LC-MS. A calibration curve was prepared from the value (peak ratio) obtained by dividing the peak area of the test substance by the peak area of the internal standard substance in MS and the concentration of the plasma calibration curve sample. The concentration in the sample was calculated from the peak ratio and the calibration curve of each sample.
# hDAT = hDAT (Homo sapiens (Human), UniProt Q01959); assay: Dopamine receptor inhibitory activity evaluation (binding assay, CHO-S/hDAT membranes); conditions: off-target
# Protocol: The binding evaluation assay was outsourced to Eurofins. Specifically, CHO—S/hDAT cells were homogenized in an incubation buffer consisting of 50 mmol/L Tris-HCl, pH 7.4, 100 mmol/L NaCl, 1 μmol/L Leupeptin, and 10 μmol/L PMSF. The membrane pellet obtained by centrifugation was resuspended in the incubation buffer to prepare a membrane preparation. The test compound (1-10 μmol/L DMSO solution), the membrane preparation, and 0.15 nmol/L […] were mixed and incubated at 4° C. for 180 minutes. The cell membrane-[^125I]RTI-55 complex was bound to a GF/B filter mat by vacuum filtration and washed with 50 mmol/L Tris-HCl, pH 7.4. The effect on the receptor was assessed by measuring radioactivity using a scintillation counter.
# recombinant p300 = recombinant p300 (Homo sapiens (Human), UniProt Q09472); assay: HAT activity inhibition experiment (SensoLyte HAT(p300) Assay Kit); assay type: biochemical
# Protocol: The HAT activity inhibitory ability of HAT inhibitors was evaluated using SensoLyte HAT(p300) Assay Kit (ANASPEC, AS-72172). Specifically, 7.5 μL of the compound of Examples […] diluted with assay buffer was added to 7.5 μL of recombinant p300 solution diluted 10 times with assay buffer, and the mixture was incubated at room temperature for 10 minutes. 7.5 μL of acetyl CoA solution diluted 10 times with assay buffer and 15 μL of histone H3 peptide diluted 10 times with assay buffer were added thereto, and the mixture was incubated at 37° C. for 30 minutes. 37.5 μL of Stop Solution was added to stop the reaction. 75 μL of p300 Developer solution diluted 50 times with assay buffer was added, and the mixture was incubated at room temperature for 30 minutes under light-shielded conditions. The fluorescence at 513 nm when irradiated with 389 nm excitation light was measured using a multiplate reader.
# Solubility test = assay type: physicochemical; conditions: pH 2.0 and pH 3.0 buffers
# Protocol: The solubility was measured for Examples 7, 10, 20, 23, 24, and 30 to 34, Comparative Example 1, and Comparative Example 2. The test compound was added to 10 mmol/L glycine buffer (pH 2.0) and 10 mmol/L citrate buffer (pH 3.0), and the mixture was stored in a thermostatic chamber at 5° C. After standing overnight, the mixture was filtered through a membrane filter, and the concentration of the filtrate was measured by HPLC.
# The HPLC measurement conditions are as follows.
# HPLC conditions • Column: Acquity UPLC BEH C18, 1.7 μm, 50×2.1 mm • Column temperature: 40° C. • Mobile phase: A: 0.1% trifluoroacetic acid-containing water • B: acetonitrile • A/B (min): 95/5 (0)→0/100 (3.5)→0/100 (4)→95/5 (4.01)→95/5 (5) • Flow rate: 0.8 mL/min • Detection: UV visible detector, measurement wavelength 254 nm • Injection volume: 5 μL or • Column: Acquity UPLC BEH C18, 1.7 μm, 50×2.1 mm • Column temperature: 40° C. • Mobile phase: A: 0.1% trifluoroacetic acid-containing water • B: acetonitrile • A/B (min): • 80/20 (0)→40/60 (3.0)→0/100 (3.5)→0/100 (4)→80/20 (4.01)→80/20 (5) • Flow rate: 0.8 mL/min • Detection: UV visible detector, measurement wavelength 254 nm • Injection volume: 2 μL or • Column: Acquity UPLC BEH C18, 1.7 μm, 50×2.1 mm • Column temperature: 40° C. • Mobile phase: A: 0.1% trifluoroacetic acid-containing water • B: acetonitrile • A/B (min): • 80/20 (0)→40/60 (3.0)→0/100 (3.5)→0/100 (4)→100/0 (4.01)→100/0 (5) • Flow rate: 0.8 mL/min • Detection: UV visible detector, measurement wavelength 254 nm • Injection volume: 3 μL
# G-401 cells = assay: Cell proliferation inhibition experiment using G-401 cells; assay type: cell-based
# Protocol: G-401 cells (derived from malignant rhabdoid tumor) were obtained from the American Type Culture Collection (ATCC). G-401 cells were cultured in McCoy's 5A medium containing 10% fetal bovine serum and 1% penicillin/streptomycin under conditions of 37° C. and 5% CO2.
# 500 cells per well were seeded in a 384-well plate. One day after seeding, Examples 1 to 35 were added so that the final concentration of DMSO was 0.1%, and the cells were cultured for 3 days. After the culture was completed, the cell viability was measured using CellTiter-Glo Luminescent Cell Viability Assay (Promega, G7570).
# recombinant p300, sequence (Q09472 whole entry): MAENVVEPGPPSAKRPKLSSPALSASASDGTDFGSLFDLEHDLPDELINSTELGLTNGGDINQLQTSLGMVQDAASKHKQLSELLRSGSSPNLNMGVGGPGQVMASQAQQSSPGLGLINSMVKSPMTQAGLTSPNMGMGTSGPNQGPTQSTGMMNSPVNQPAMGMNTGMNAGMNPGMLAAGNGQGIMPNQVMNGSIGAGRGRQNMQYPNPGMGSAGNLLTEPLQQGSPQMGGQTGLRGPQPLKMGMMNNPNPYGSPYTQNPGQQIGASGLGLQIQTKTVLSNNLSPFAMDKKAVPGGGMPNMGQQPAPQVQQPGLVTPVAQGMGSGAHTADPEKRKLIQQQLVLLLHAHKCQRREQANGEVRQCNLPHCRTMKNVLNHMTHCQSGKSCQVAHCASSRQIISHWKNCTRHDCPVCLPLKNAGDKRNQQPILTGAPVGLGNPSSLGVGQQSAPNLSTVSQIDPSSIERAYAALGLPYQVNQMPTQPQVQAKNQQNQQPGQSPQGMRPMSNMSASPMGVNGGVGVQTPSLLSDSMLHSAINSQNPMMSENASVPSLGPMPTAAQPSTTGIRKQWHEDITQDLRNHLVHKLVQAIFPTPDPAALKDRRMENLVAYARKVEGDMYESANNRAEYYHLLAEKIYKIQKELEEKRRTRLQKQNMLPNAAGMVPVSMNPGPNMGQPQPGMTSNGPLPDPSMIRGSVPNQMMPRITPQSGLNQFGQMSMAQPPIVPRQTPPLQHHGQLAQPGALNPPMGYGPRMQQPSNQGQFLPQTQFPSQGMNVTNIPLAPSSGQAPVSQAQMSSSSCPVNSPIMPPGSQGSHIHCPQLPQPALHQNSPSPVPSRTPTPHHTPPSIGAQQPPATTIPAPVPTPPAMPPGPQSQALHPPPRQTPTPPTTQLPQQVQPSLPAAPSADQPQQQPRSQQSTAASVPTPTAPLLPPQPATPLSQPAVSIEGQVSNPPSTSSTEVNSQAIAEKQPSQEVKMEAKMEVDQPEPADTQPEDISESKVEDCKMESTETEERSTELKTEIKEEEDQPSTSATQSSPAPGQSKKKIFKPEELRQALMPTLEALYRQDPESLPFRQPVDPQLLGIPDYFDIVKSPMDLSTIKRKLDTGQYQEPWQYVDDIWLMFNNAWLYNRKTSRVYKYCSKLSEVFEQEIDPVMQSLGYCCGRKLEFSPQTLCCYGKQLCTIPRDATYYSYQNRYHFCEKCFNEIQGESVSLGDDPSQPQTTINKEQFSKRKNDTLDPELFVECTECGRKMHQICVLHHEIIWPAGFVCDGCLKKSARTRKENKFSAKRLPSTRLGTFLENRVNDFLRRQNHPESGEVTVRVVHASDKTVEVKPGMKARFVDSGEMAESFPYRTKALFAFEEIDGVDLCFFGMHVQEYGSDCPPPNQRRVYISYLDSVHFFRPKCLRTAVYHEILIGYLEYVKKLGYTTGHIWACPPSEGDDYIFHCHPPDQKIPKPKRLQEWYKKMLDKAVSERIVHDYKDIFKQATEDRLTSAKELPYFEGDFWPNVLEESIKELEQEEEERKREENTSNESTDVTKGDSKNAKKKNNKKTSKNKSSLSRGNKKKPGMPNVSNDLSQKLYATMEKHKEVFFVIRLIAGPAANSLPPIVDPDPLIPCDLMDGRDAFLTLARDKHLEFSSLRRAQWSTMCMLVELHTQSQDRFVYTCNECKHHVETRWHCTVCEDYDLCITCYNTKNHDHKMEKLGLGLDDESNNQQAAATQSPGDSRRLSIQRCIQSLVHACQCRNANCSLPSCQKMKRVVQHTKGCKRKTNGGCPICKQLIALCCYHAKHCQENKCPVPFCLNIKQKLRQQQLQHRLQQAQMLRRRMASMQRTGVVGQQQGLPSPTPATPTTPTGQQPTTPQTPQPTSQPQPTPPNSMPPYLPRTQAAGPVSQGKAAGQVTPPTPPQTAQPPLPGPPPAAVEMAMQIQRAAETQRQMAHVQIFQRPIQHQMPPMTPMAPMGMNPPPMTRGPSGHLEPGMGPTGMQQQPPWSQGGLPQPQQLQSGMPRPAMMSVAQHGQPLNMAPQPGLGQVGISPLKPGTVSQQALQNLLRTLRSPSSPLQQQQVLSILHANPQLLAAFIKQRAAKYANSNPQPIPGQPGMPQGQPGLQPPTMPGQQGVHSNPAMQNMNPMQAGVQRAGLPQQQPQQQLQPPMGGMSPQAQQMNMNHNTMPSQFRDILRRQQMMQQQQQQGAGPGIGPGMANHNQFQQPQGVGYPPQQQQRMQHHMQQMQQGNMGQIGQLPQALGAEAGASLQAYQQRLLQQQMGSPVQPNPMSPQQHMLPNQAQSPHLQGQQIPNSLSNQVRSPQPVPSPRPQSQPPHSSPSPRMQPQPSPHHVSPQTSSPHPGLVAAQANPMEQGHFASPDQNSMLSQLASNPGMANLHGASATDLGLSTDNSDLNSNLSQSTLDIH
# hDAT, sequence (Q01959 whole entry): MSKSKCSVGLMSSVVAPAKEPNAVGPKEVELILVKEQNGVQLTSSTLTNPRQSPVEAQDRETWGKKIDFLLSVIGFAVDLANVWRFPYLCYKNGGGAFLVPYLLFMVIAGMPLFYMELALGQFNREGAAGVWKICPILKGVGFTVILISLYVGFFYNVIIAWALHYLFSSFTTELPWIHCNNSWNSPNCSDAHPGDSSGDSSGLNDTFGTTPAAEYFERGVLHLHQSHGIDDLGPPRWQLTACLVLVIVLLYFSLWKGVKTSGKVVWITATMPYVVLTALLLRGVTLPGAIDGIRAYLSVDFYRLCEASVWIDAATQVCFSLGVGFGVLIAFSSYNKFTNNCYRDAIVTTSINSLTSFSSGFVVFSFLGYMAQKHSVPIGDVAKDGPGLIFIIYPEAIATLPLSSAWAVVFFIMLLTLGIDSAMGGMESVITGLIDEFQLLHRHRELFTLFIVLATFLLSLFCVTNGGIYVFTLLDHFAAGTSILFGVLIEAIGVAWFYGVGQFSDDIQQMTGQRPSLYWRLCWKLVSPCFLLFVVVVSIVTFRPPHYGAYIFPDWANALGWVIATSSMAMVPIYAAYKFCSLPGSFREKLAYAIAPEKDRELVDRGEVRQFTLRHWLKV
# hSERT, sequence (P31645 whole entry): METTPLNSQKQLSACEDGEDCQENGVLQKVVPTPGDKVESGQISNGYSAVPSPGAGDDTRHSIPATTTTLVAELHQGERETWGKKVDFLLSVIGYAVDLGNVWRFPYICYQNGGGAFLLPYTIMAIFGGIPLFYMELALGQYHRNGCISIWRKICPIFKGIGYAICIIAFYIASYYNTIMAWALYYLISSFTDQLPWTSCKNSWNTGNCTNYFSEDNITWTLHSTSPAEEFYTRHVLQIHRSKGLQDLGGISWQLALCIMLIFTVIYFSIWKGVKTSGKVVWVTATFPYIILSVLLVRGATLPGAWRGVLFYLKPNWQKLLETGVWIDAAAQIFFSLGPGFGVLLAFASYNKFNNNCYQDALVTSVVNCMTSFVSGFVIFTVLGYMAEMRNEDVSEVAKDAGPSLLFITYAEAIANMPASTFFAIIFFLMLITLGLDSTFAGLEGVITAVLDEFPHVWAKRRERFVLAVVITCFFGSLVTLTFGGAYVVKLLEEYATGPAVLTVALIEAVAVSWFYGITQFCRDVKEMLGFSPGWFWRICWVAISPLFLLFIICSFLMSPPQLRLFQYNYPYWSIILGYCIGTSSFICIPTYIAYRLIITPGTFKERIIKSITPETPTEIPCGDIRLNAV
smiles,measurement,setting,value
"O=C1N[C@]2(C[C@@H](F)c3cc(-c4cnn(C5CN(C6COC6)C5)c4)ccc32)C(=O)N1CC(=O)N(Cc1ccc(F)cn1)C1(C(F)(F)F)COC1 [Example 7, 2-[(1′S,3′R)-3′-fluoro-5′-{1-[1-(oxetan-3-yl)azetidin-3-yl]-1H-pyrazol-4-yl}-2,5-dioxo-2′,3′-dihydrospiro[imidazolidine-4,1′-inden]-1-yl]-N-[(5-fluoropyridin-2-yl)methyl]-N-[3-(trifluoromethyl)oxetan-3-yl]acetamide]","Antitumor effect, oral administration (in words)",G-401 xenograft [1],strong antitumor effects
same,Inhibitory effect on serotonin receptors (in words),hSERT,did not show strong inhibitory activity
same,"Antitumor effect, intravenous administration (in words)",G-401 xenograft [2],strong antitumor effects
same,Pharmacokinetics (in words),[3],excellent pharmacokinetics
same,Inhibitory effect on dopamine receptors (in words),hDAT,did not show strong inhibitory activity
same,HAT activity inhibition (in words),recombinant p300,strong inhibition of HAT activity
same,Solubility (in words),Solubility test,high solubility
same,Cell proliferation inhibitory effect on G-401 cells (in words),G-401 cells,strong cell proliferation inhibitory effect
